This is an account of results in paper PMC9410420, “Novel Labdane Diterpenes-Based Synthetic Derivatives: Identification of a Bifunctional Vasodilator That Inhibits CaV1.2 and Stimulates KCa1.1 Channels” (Marine Drugs, 2022).

By Emax is commonly meant the maximal effect, on the per cent scale that the assay sets. In general, IC50 refers to the midpoint of a concentration-inhibition curve.

Data set [1] has as its system rat aorta rings. As to the kind of experiment: KCl-induced contraction of rat aorta rings (electromechanical coupling). The procedure: (§1) The abdominal aorta was gently cleaned of adipose and connective tissues and cut into 3-mm wide rings. These were mounted in organ baths between two parallel, L-shaped, stainless-steel hooks, with one fixed in place and the other connected to an isometric transducer. Rings were allowed to equilibrate for 60 min in modified Krebs-Henseleit solution (composition in mM: 118 NaCl, 4.75 KCl, 1.19 KH2PO4, 1.19 MgSO4, 25 NaHCO3, 11.5 glucose, 2.5 CaCl2, gassed with a 95% O2–5% CO2 gas mixture to create a pH of 7.4) under a passive tension of 1 g. During this equilibration period, the solution was changed every 15 min. Isometric tension was recorded using a digital PowerLab data acquisition system (PowerLab 8/30; ADInstruments). Ring viability was assessed by recording the response to 0.3 µM phenylephrine and 60 mM KCl. Where needed, the endothelium was removed by gently rubbing the lumen of the ring with a forceps tip. This procedure was validated by adding 10 µM acetylcholine at the plateau of phenylephrine-induced contraction; a relaxation greater than 70% or less than 10% denoted the presence or absence of functional endothelium, respectively.
(§2) Aorta rings were pre-contracted pharmaco-mechanically using 0.3 µM phenylephrine and electromechanically using 25–30 mM or 60 mM KCl. Once the contraction reached a plateau, the compound was added cumulatively into the organ bath. […] The response was calculated as the percentage of phenylephrine- or KCl-induced contraction (taken as 100%).

Data set [2] has as its system rat aorta rings. The experiment in a line: Phenylephrine-induced contraction of rat aorta rings (pharmaco-mechanical coupling). The note with it: for Emax: Rattus norvegicus; for Emax / IC50: 0.3 µM phenylephrine. Here is the method: as §1, §2
Data set [3] addresses T1, CaV1.2 channel (Rattus norvegicus, UniProt P22002).
T1 construct: smooth muscle cells were freshly isolated; endogenous in cells; host or cells: freshly isolated rat tail main artery smooth muscle cells
As to the kind of experiment: Whole-cell patch-clamp, Ba2+ current through CaV1.2 channels (IBa1.2) in rat tail artery myocytes. The note with it: for Emax: read-out: Emax (percent maximal inhibition), IBa1.2; for IC50: read-out: IC50, IBa1.2 inhibition. It counts as cell-based. Here is the method: The tail main artery was dissected free of its connective tissue, and smooth muscle cells were freshly isolated under the following conditions. […] Cells stored in 0.05 mM Ca^2+ external solution containing 20 mM taurine and 0.5 mg/mL BSA at 4 °C under normal air were used for experiments within two days after isolation.
An Axopatch 200B patch-clamp amplifier (Molecular Devices Corporation, Sunnyvale, CA, USA) was used to generate and apply voltage pulses to the clamped cells and record the corresponding membrane currents. Recording electrodes were pulled from borosilicate glass capillaries (WPI, Berlin, Germany) and fire-polished to obtain a pipette resistance of 2–4 MΩ, when filled with an internal solution. At the beginning of each experiment, the junction potential between the pipette and bath solution was electronically adjusted to zero. […] Electrophysiological responses were tested at room temperature (20–22 °C).
The conventional whole-cell patch-clamp method was employed to voltage-clamp smooth muscle cells. The internal solution consisted of (in mM) 100 CsCl, 10 HEPES, 11 EGTA, 2 MgCl2, 1 CaCl2 (pCa 8.4), 5 Na pyruvate, 5 succinic acid, 5 oxaloacetic acid, 3 Na2ATP, and 5 phosphocreatine; pH was adjusted to 7.4 with CsOH. IBa1.2 was recorded in an external solution containing 30 mM TEA and 5 mM Ba^2+. […] Data were collected once the current amplitude had been stabilized (usually 7–10 min after the whole-cell configuration had been obtained).

For data set [4], the target named is T1, CaV1.2 channel. The experiment in a line: Voltage dependence of CaV1.2 channel steady-state activation and inactivation in rat tail artery myocytes. Particulars: for Slope inact (slope factor of inactivation) / V50 inact (50% inactivation potential): Vh −80 mV. The data set is classed as cell-based. The text has this:
An Axopatch 200B patch-clamp amplifier (Molecular Devices Corporation, Sunnyvale, CA, USA) was used to generate and apply voltage pulses to the clamped cells and record the corresponding membrane currents. Recording electrodes were pulled from borosilicate glass capillaries (WPI, Berlin, Germany) and fire-polished to obtain a pipette resistance of 2–4 MΩ, when filled with an internal solution. At the beginning of each experiment, the junction potential between the pipette and bath solution was electronically adjusted to zero. After compensation for whole-cell capacitance and series resistance (between 70% and 75%), current signals were low-pass filtered at 1 kHz and digitized at 3 kHz, before being stored on a computer hard disk. Electrophysiological responses were tested at room temperature (20–22 °C).
Cells were continuously superfused with an external solution containing 0.1 mM Ca^2+ and 30 mM TEA using a peristaltic pump (LKB 2132, Bromma, Sweden) at a flow rate of 400 µL/min. The conventional whole-cell patch-clamp method was employed to voltage-clamp smooth muscle cells. The internal solution consisted of (in mM) 100 CsCl, 10 HEPES, 11 EGTA, 2 MgCl2, 1 CaCl2 (pCa 8.4), 5 Na pyruvate, 5 succinic acid, 5 oxaloacetic acid, 3 Na2ATP, and 5 phosphocreatine; pH was adjusted to 7.4 with CsOH. IBa1.2 was recorded in an external solution containing 30 mM TEA and 5 mM Ba^2+. The current was elicited with 250-ms clamp pulses (0.067 Hz) to 10 mV, from a Vh of −50 mV. Data were collected once the current amplitude had been stabilized (usually 7–10 min after the whole-cell configuration had been obtained).
Steady-state activation curves were derived from the current–voltage relationships. Conductance (G) was calculated from the equation G = IBa1.2/(Em − Erev), where: IBa1.2 is the peak current elicited by depolarizing test pulses between −50 mV and 40 mV from a Vh of −50 mV; Em is the membrane potential; and Erev is the reversal potential (estimated from the extrapolated current-voltage curves in Figure 2). Gmax is the maximal Ba^2+ conductance (calculated at potentials ≤40 mV). The G/Gmax ratio was plotted against the membrane potential and fitted to the Boltzmann equation [40]. Steady-state inactivation curves were obtained using a double-pulse protocol. Once various levels of the conditioning potential had been applied for 5 s, followed by a short (5-ms) return to the Vh of −80 mV, a test pulse (250 ms) to 10 mV was delivered to evoke the current. The delay between the conditioning potential and the test pulse allowed the full or near-complete deactivation of the channels, simultaneously avoiding partial recovery from inactivation. K^+ currents were blocked with 30 mM TEA in the external solution and Cs^+ in the internal solution. […] The osmolarity of the 30 mM TEA- and 5 mM Ba^2+-containing external solution (320 mosmol, adjusted with NaCl if required) and that of the internal solution (290 mosmol) were measured with an osmometer (Osmostat OM 6020, Menarini Diagnostics, Florence, Italy).

Where [5] appears, read: endothelium-denuded rat aorta rings pre-contracted by 25 mM KCl, read-out: Emax (percent maximal inhibition), KCl 25 mM-induced contraction.
The mark [6] stands for this setting: endothelium-denuded rat aorta rings pre-contracted by 60 mM KCl, read-out: Emax (percent maximal inhibition), KCl 60 mM-induced contraction.
The mark [7] stands for this setting: endothelium-denuded rat aorta rings pre-contracted by 60 mM KCl, read-out: IC50, KCl 60 mM-induced contraction.
[8] abbreviates: endothelium-denuded rat aorta rings pre-contracted by 25 mM KCl, read-out: IC50, KCl 25 mM-induced contraction.
[9] abbreviates: endothelium-denuded rat aorta rings, read-out: Emax (percent maximal inhibition), phenylephrine-induced contraction, −Endothelium.
The mark [10] stands for this setting: endothelium-intact rat aorta rings, read-out: Emax (percent maximal inhibition), phenylephrine-induced contraction, +Endothelium.
Setting [11] is: endothelium-denuded rat aorta rings.

T1 sequence (P22002 whole entry): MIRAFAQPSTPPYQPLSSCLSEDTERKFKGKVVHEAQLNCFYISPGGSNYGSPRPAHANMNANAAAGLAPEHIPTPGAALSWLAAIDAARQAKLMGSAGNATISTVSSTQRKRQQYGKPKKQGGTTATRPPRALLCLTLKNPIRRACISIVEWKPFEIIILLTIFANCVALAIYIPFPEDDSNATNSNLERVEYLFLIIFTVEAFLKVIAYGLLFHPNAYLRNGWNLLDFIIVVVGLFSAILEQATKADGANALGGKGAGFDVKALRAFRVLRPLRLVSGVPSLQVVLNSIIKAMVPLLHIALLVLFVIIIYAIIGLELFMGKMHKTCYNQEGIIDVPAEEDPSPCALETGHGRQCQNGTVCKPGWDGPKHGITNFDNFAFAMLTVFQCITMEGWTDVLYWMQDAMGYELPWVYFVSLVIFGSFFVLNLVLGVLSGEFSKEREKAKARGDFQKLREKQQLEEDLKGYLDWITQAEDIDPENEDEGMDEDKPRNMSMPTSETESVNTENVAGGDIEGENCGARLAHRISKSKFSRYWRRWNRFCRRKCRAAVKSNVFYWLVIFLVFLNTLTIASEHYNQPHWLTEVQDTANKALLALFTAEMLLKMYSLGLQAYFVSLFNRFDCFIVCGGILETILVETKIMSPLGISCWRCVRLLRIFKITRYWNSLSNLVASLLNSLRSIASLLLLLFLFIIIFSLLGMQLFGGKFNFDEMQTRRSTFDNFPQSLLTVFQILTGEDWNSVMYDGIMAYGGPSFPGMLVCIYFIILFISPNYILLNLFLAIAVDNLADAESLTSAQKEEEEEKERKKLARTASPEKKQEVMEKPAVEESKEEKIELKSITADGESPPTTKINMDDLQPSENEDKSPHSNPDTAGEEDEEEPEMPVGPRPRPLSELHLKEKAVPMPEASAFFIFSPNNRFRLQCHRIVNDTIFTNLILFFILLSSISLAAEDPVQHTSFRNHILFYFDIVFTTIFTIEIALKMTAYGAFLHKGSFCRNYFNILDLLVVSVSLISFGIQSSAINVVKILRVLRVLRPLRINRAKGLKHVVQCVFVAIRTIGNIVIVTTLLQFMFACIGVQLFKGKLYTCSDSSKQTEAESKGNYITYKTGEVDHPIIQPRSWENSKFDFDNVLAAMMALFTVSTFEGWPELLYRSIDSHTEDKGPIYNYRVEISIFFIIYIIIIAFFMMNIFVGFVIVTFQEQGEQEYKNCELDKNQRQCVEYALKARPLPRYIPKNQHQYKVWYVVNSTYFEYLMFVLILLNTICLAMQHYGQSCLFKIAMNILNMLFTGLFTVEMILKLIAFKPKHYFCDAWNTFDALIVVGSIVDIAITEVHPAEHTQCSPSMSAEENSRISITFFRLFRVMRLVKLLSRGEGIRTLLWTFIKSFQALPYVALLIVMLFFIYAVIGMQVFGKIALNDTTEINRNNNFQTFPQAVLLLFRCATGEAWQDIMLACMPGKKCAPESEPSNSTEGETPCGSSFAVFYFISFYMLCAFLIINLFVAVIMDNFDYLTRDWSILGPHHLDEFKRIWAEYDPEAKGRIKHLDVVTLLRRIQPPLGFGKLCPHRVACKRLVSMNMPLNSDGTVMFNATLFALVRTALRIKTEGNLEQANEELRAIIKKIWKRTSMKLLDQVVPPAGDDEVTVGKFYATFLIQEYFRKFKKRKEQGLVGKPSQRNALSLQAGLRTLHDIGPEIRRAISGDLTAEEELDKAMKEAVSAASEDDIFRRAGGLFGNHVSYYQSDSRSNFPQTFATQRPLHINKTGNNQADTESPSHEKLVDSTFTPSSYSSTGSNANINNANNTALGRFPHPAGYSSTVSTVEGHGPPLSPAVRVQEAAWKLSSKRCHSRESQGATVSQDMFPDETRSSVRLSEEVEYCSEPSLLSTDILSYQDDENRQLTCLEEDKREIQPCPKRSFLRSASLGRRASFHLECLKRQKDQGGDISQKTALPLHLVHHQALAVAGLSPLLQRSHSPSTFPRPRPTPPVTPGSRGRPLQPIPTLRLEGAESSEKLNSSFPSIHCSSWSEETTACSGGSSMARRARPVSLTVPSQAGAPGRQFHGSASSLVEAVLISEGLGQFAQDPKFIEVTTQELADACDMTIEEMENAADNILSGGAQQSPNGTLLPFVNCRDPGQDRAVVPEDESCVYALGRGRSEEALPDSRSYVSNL
T1 sequence (P54290 25-944 partner limits assumed): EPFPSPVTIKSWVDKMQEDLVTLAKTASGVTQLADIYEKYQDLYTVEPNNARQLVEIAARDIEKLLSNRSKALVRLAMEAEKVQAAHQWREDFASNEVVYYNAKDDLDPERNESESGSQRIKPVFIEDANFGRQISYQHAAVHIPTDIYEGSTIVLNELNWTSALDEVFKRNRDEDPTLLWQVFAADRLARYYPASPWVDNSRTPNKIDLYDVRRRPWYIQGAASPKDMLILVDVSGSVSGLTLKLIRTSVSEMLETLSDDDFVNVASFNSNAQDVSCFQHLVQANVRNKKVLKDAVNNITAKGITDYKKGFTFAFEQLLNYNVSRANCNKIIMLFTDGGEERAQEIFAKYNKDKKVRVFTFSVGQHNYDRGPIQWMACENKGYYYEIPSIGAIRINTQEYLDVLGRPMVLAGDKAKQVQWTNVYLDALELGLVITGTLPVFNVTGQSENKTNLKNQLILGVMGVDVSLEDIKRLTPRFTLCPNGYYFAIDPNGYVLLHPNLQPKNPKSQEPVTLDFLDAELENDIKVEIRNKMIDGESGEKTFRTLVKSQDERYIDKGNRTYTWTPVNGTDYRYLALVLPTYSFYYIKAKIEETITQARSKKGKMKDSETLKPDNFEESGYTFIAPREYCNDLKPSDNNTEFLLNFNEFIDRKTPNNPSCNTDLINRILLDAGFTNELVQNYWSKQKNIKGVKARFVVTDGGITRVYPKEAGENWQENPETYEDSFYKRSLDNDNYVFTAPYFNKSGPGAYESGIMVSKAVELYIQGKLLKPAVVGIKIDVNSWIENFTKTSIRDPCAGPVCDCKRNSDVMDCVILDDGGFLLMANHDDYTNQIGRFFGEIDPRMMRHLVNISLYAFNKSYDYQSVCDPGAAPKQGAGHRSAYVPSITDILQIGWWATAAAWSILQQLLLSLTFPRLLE
T1 sequence (P54290 945-1091 partner limits assumed): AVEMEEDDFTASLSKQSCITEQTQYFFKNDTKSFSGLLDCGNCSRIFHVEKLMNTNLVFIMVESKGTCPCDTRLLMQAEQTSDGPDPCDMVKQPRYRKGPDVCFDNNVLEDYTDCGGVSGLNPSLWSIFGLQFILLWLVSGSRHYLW
T1 sequence (P54287 whole entry partner): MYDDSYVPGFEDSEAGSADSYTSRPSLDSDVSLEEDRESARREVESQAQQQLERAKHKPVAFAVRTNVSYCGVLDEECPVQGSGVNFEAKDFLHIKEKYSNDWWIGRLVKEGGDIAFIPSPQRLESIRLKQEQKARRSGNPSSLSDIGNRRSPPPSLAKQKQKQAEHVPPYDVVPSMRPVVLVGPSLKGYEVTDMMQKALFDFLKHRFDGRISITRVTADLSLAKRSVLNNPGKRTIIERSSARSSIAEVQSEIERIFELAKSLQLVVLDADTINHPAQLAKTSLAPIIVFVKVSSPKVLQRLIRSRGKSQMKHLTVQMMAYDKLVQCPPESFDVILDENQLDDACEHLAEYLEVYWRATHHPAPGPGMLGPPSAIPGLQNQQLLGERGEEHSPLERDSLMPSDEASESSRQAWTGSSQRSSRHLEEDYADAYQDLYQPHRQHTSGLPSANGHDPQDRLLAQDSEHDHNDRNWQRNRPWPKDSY

For the molecule `CC1(C)CCCC2(C)C1CCC1(C)OC(=O)CC12` (single isomer, unassigned; (+)) [Compound 5, (+)-sclareolide, reference compound], the values for the Emax in data set [1] (setting [5]), in data set [1] (setting [6]) and in data set [3] (pulses to 10 mV from Vh −50 mV) were 45.9 ± 8.5%, 73.5 ± 6.8% and 64.8 ± 6.1%, respectively. The IC50 in data set [1] (setting [7]) is 29.2 ± 6.1 µM; in data set [3] (pulses to 10 mV from Vh −50 mV) it was ~69 µM. The “Effect on phenylephrine-induced tone in words” value in data set [2] (endothelium-intact rat aorta rings) is “dramatic concentration-dependent increase of phenylephrine-induced tone”.

Take `CC1(C)CCC[C@]2(C)[C@@H](CCOCc3cccc(Cl)c3)[C@](C)(O)CC[C@@H]12` [Compound 10]: the Emax worked out at 53.1 ± 13.4% in data set [1] (setting [6]) and 86.4 ± 4.9% in data set [3] (pulses to 10 mV from Vh −50 mV). In addition, the results for the IC50 in data set [1] (setting [7]) and in data set [3] (pulses to 10 mV from Vh −50 mV) were ~69.2 µM and 20.8 ± 6.1 µM, respectively.

As for `COC(=O)C1=C(C)NC(C)=C([N+](=O)[O-])[C@H]1c1ccccc1C(F)(F)F` [Bay K 8644, (S)-(-)-Bay K 8644, reference compound], the “IBa1.2, % of the control” value in data set [3] (100 nM, n = 5) was found to be 447 ± 28%.

In the case of sclareol [Compound 6], the “Emax (percent maximal inhibition), KCl 60 mM-induced contraction” value in data set [1] (endothelium-denuded rat aorta rings pre-contracted by 60 mM KCl) was 98.8 ± 1.3 (5) %. Further, the IC50 in data set [1] (setting [7]) amounted to 11.9 ± 1.3 µM. Moreover, in data set [3] (pulses to 10 mV from Vh −50 mV), the “Emax (percent maximal inhibition), IBa1.2” value is reported as 88.7 ± 4.0 (5) % and the IC50 amounted to 33.2 ± 6.8 µM.

For `CC1(C)CCC[C@]2(C)[C@@H](CC(=O)NCCc3cccc(F)c3)[C@](C)(O)CC[C@@H]12` [Compound 9], the “Slope act (slope factor of activation)” value in data set [4] (10 µM compound) is given as 6.79 ± 0.35. Further, in data set [4] (10 µM compound), the “V50 act (50% activation potential)” value is on record as −2.37 ± 0.95 mV. Moreover, in data set [4] (10 µM compound), the “Slope inact (slope factor of inactivation)” value is −10.25 ± 1.33. Also, the “V50 inact (50% inactivation potential)” value in data set [4] (10 µM compound) is −36.46 ± 2.73 mV. The Emax was 92.3 ± 0.6% in data set [1] (setting [5]); 92.4 ± 1.3% in data set [1] (setting [6]); ≤ 60% in data set [2] (setting [9]); 19.4 ± 23.2% in data set [2] (setting [10]); 97.8 ± 0.8% in data set [3] (pulses to 10 mV from Vh −50 mV). In addition, the IC50 in data set [1] (setting [8]) was 0.9 ± 0.2 µM; in data set [1] (setting [7]), 4.5 ± 0.5 µM; in data set [2] (setting [11]), ~55 µM; in data set [3] (pulses to 10 mV from Vh −50 mV) it was 15.3 ± 5.3 µM.

Regarding `CC1(C)CCC[C@]2(C)[C@@H](CC(=O)NCc3ccco3)[C@](C)(O)CC[C@@H]12` [Compound 8], in data set [4] (10 µM compound), the “Slope inact (slope factor of inactivation)” value is −11.51 ± 1.90. Besides, the “V50 inact (50% inactivation potential)” value in data set [4] (10 µM compound) is −30.97 ± 3.49 mV. Besides, the “Slope act (slope factor of activation)” value in data set [4] (30 µM compound) is 7.61 ± 0.66. Besides, in data set [4] (30 µM compound), the “V50 act (50% activation potential)” value is given as 0.03 ± 1.35 mV. Also, the Emax in data set [1] (setting [5]) is 85.8 ± 4.8%; in data set [1] (setting [6]), 87.3 ± 4.9%; in data set [2] (setting [9]) it was ≤ 60%; in data set [2] (setting [10]), 15.2 ± 7.9%; in data set [3] (pulses to 10 mV from Vh −50 mV) it was 92.4 ± 2.2%. Moreover, the IC50 was 2.1 ± 0.9 µM in data set [1] (setting [8]), 6.1 ± 1.6 µM in data set [1] (setting [7]), ~44.7 µM in data set [2] (setting [11]) and 16.7 ± 3 µM in data set [3] (pulses to 10 mV from Vh −50 mV).
